# From patent publication US11452292B2, “Biofilm inhibitor and method of inhibiting biofilm” (NDSU Research Foundation, priority 2017, dated 2022)
# Read-outs that look alike come from different tables or passages of the source.
# Columns and labels:
# [1] = system: E. coli O157:H7; assay: Biofilm amounts in liquid beef broth at 10° C.; assay type: cell-based; settings: for effect on bacterial cell counts and biofilm amounts: E. coli O157:H7 grown in liquid beef broth at 10° C.; for IC50: Escherichia coli, read-out: IC50 biofilm
# [2] = system: E. coli O157:H7; assay: Bacterial cell number in liquid beef broth at 10° C.; assay type: cell-based; settings: Escherichia coli, read-out: IC50 cell number
# [3] = system: E. coli K-12; assay: Biofilm, supplement/control, TB medium; assay type: cell-based
# [4] = system: flhD; assay: flhD, supplement/control, TB medium; assay type: cell-based, E. coli K-12
# [5] = system: E. coli K-12; assay type: cell-based
# [6] = system: ymoA; assay: qPCR of mRNA transcript in response to AAA; settings: 5 mg/ml AAA
# [7] = system: yadA; assay: qPCR of mRNA transcript in response to AAA; settings: 5 mg/ml AAA
# [8] = system: Y. enterocolitica; assay: Motility assay on motility plates; assay type: cell-based, Yersinia enterocolitica; settings: 5 mg/ml of AAA, 25° C., semi solid tryptone broth agar plates
# [9] = system: Y. enterocolitica; assay: Planktonic growth (maximal velocity of OD600) in TSB; assay type: cell-based, Yersinia enterocolitica; settings: Yersinia enterocolitica, Y. enterocolitica, 37° C.
# Procedure: (§1) The IC50 values were calculated using […] software (Hitachi Solutions, San Bruno, Calif.).
# [10] = system: S. marcescens; assay: Biofilm amounts, CV assay, 24-well polystyrene plate; assay type: cell-based; settings: Serratia marcescens, 30° C.
# Source text: (§2) Data were expressed as OD600.
# [11] = system: C. sakazakii; assay: as above; assay type: cell-based; settings: Cronobacter sakazakii, 37° C.
# Source text: as §2
# [12] = system: Y. enterocolitica; assay: as above; assay type: cell-based, Yersinia enterocolitica; settings: Yersinia enterocolitica, Y. enterocolitica
# Source text: as §2
# [13] = system: Y. enterocolitica; assay: Biofilm amounts, ATP assay, 24-well polystyrene plate; assay type: cell-based, Yersinia enterocolitica; settings: Yersinia enterocolitica, Y. enterocolitica
# [14] = system: S. marcescens; assay: Planktonic growth (maximal velocity of OD600) in TSB; assay type: cell-based; settings: Serratia marcescens, 30° C.
# Procedure: as §1
# [15] = system: C. sakazakii; assay: as above; assay type: cell-based; settings: Cronobacter sakazakii, 37° C.
# Procedure: as §1
# [16] = system: S. marcescens; assay: Growth and biofilm assays taken together (growth, CV, ATP); settings: Serratia marcescens, read-out: IC50 values, range over growth, CV and ATP assays
# [17] = system: C. sakazakii; assay: as above; settings: Cronobacter sakazakii, read-out: IC50 values, range over growth, CV and ATP assays
# [18] = system: C. sakazakii; assay: Biofilm amounts, ATP assay, 24-well polystyrene plate; assay type: cell-based; settings: Cronobacter sakazakii, 37° C.
# [19] = system: S. marcescens; assay: as above; assay type: cell-based; settings: Serratia marcescens, 30° C.
# [20] = system: flhD; assay: qPCR of mRNA transcript in response to AAA; settings: 5 mg/ml AAA; biofilm associated and planktonic bacteria, 25 and 37° C.
# [21] = system: Y. enterocolitica; assay: Growth and biofilm assays taken together (growth, CV, ATP); settings: Yersinia enterocolitica, read-out: IC50 values, range over growth, CV and ATP assays
# [22] = system: virF; assay: qPCR of mRNA transcript in response to AAA; settings: 5 mg/ml AAA; biofilm, both temperatures
# [23] = system: S. aureus; assay: Biofilm amounts on PEA containing polyurethane relative to plain polyurethane; assay type: cell-based, Staphylococcus aureus; settings: 5 wt. % PEA in polyurethane vs 0% PEA
# Source text: The instant inventors modified a material that is commonly used in clinical and food processing contexts, polyurethane, with β-phenylethylamine (PEA). To produce the PEA containing polyurethane (PU-PEA), food grade polyurethane (Zythane 7085A™) was impregnated with 0, 2.5, 5.0, and 10.0 weight percent PEA and a heat-melt extruded. At 10 wt. %, PEA formed aggregates and was not anymore uniformly distributed throughout the material (FIG. 17).
# The biofilm inhibiting efficacy of 5 wt. % PEA was then tested against six bacterial strains (FIG. 18). E. coli AJW is non-pathogenic and was described as a good former of biofilm, P. aeruginosa is a pathogen that was described as a contaminant on conveyor belts, but also forms biofilm on urinary catheters. S. aureus causes staph infections and can form biofilm in intravenous catheters, E. coli O157:H7 has been studied in multiple foods and on numerous food processing surfaces, and the two E. coli UPEC strains are uropathogens that are commonly found on catheters. PU/PEA had reduced biofilm amounts relative to plain polyurethane for all strains tested. Reductions varied between 5 and 80% in depending on the bacterial pathogen. In particular, this initial PU-PEA material was able to reduce Staphylococcus aureus biofilm by 80% and biofilm of several other bacterial pathogens by 20 to 50%.
# [24] = system: bacteria; assay: Live/dead assay with fluorescence dyes; assay type: cell-based; settings: live/dead staining, preliminary data
# Procedure: To determine whether the bacteria were being adversely affected by PEA, a live/dead assay was performed where the total bacterial population and the population of dead bacteria were stained with different fluorescence dyes. […] This supports the argument that the bacterial nutrients reduce biofilm amounts without killing the bacteria, therefore, reducing the likelihood of the development of resistance.
smiles,measurement,setting,value
"O=P(O)(O)OCC(O)CO (racemic) [D,L-glycerol phosphate]",effect on bacterial cell counts and biofilm amounts,[1],inhibit bacterial cell counts and biofilm amounts
"CCCCCCC(N)C(=O)O (racemic) [D,L-α-aminocaprylic acid]",IC50,[2],1.96 mg/mL
same,"Ratio, biofilm (supplement/control)",[3],0.85
same,"Ratio, flhD (supplement/control)",[4],0.55
same,effect on bacterial cell counts and biofilm amounts,[1],inhibit bacterial cell counts and biofilm amounts
same,IC50,[1],1.84 mg/mL
same,"Ratio, growth (supplement/control)",[5],0.26
"CC(=O)CC(=O)O [AAA, acetoacetate]",effect of AAA on ymoA transcription,[6],no effect
same,reduction of mRNA levels for yadA,[7]; biofilm bound bacteria at 25° C.,~10 fold
same,reduction of mRNA levels for yadA,[7]; planktonic bacteria at 37° C.,approximately 20 fold
same,motility in the presence of AAA,[8],about 0.25 mm/h
same,IC50,[9],11 mg/mL
same,IC50,[10],35 mg/mL
same,IC50,[11],22 mg/mL
same,IC50,[12]; 25° C.,26 mg/mL
same,IC50,[12]; 37° C.,14 mg/mL
same,IC50,[13]; 25° C.,18 mg/mL
same,IC50,[13]; 37° C.,12 mg/mL
same,IC50,[14],29 mg/mL
same,IC50,[15],20 mg/mL
same,IC50,[16],24 to 35 mg/mL
same,IC50,[17],20 to 24 mg/mL
same,IC50,[18],24 mg/mL
same,IC50,[19],24 mg/mL
same,reduction of mRNA levels of flhD,[20],approximately 5 fold
same,IC50,[21],11 to 14 mg/mL
same,reduction of virF transcript,[22],about 3 fold
NC(=O)C[C@@H](N)C(=O)O [D-asparagine],IC50,[2],0.62 mg/mL
same,"Ratio, biofilm (supplement/control)",[3],1.07
same,"Ratio, flhD (supplement/control)",[4],1.2
same,effect on bacterial cell counts and biofilm amounts,[1],inhibit bacterial cell counts and biofilm amounts
same,IC50,[1],0.2 mg/mL
same,"Ratio, growth (supplement/control)",[5],0.9
N[C@@H]1C(O)O[C@H](CO)[C@@H](O)[C@@H]1O (stereo partly drawn) [D-mannosamine],effect on bacterial cell counts and biofilm amounts,[1],inhibit bacterial cell counts and biofilm amounts
O=C[C@H](O)[C@@H](O)[C@H](O)CO [D-xylose],effect on growth and biofilm amounts,[3],inhibitors of growth and biofilm amounts
same,"Ratio, biofilm (supplement/control)","[3]; E. coli K-12, TB, 25° C.",0.59
same,"Ratio, flhD (supplement/control)","[4]; E. coli K-12, TB, 25° C.",0.56
same,"Ratio, growth (supplement/control)","[5]; E. coli K-12, TB, 25° C.",0.91
O=C[C@H](O)[C@H](O)[C@@H](O)CO [L-lyxose],IC50,[2],72 mg/mL
same,"Ratio, biofilm (supplement/control)",[3],0.71
same,"Ratio, flhD (supplement/control)",[4],0.68
same,effect on bacterial cell counts and biofilm amounts,[1],inhibit bacterial cell counts and biofilm amounts
same,IC50,[1],76 mg/mL
same,"Ratio, growth (supplement/control)",[5],0.98
"NCCc1ccccc1 [PEA, β-phenylethylamine]",reduction of Staphylococcus aureus biofilm,[23],80%
same,IC50,[2],0.32 mg/mL
same,"Ratio, biofilm (supplement/control)",[3],1.1
same,"Ratio, flhD (supplement/control)",[4],1.3
same,effect on bacterial cell counts and biofilm amounts,[1],inhibit bacterial cell counts and biofilm amounts
same,IC50,[1],0.34 mg/mL
same,"Ratio, growth (supplement/control)",[5],0.81
same,viability of the bacteria,[24],not impacted
Cc1c[nH]c(=O)[nH]c1=O [thymine],effect on bacterial cell counts and biofilm amounts,[1],inhibit bacterial cell counts and biofilm amounts
CCC(=O)C(=O)O [α-keto-butyric acid],effect on growth and biofilm amounts,[3],inhibitors of growth and biofilm amounts
same,"Ratio, biofilm (supplement/control)","[3]; E. coli K-12, TB, 25° C.",0.62
same,"Ratio, flhD (supplement/control)","[4]; E. coli K-12, TB, 25° C.",0.57
same,"Ratio, growth (supplement/control)","[5]; E. coli K-12, TB, 25° C.",0.54
